Laboratory results from US11667630B2, “Nitrogen-containing 6-membered cyclic compound” (Asahi Kasei Pharma Corporation, priority 2017, dated 2023).

Test system: rat femur
Test: Neo-osteogenesis action in rat femur
Type: in vivo
Settings: female SD rats, 100 μg test compound in in situ-solidified gel solution injected between quadriceps and periosteum, one week after administration
Method: Eight weeks old female SD rats (Charles River Japan) were fixed in the side lying position under triple anesthesia (medetomidine hydrochloride, midazolam, and butorphanol tartrate). After hair of the left femoral region was shaved with a hair clipper, and disinfection treatment was performed with 70% ethanol, an in situ-solidified gel solution of a test compound, specifically, a test compound dissolved in poly(lactic-co-glycolic acid) (RESOMER RG502H, produced by Evonik Industries)/poly(lactic-co-glycolic acid)-polyethylene glycol block copolymer (5050 DLG mPEG 5000, produced by Lakeshore Biomaterials)/N-methyl-2-pyrroridone (produced by Wako) (weight ratio 47%/3%/50%), was filled in a 1-mL syringe, a 21G injection needle was attached to the syringe, and the needle was transdermally stabbed from the quadriceps to the periosteum near the center of the femoral diaphyseal. Then, 100 μg as the amount of the test compound, or 50 μL as the administration volume of the solution was injected between the quadriceps and the periosteum, and the injection needle was drawn out. To the rats of the control group, the aforementioned in situ-solidified gel solution alone was administered. One week after the administration of the drug solution, the triple anesthesia was given to the animals, and they were fixed in the supine position, and euthanized by bleeding. […], circumferential tissues such as muscles were removed, the bone mineral content of the whole femur was measured by using a bone mineral analyzer DCS-600EX (produced by ALOKA), then it was divided into three portions along the long axis, and the bone mineral content of the center part (diaphysis) was evaluated. The test was performed with the groups each consisting of 6 animals.

Row | SMILES | Bone mineral content of femur 1/3 center region (mg) Left femur (administered with compound)
1 | O=C(O)c1ccc(CCN2C(=O)SCCN2CCC(O)Cc2cccc(C#Cc3nccs3)c2)s1 (centres unmarked) [Example 13, 5-(2-(4-(3-Hydroxy-4-(3-(thiazol-2-ylethynyl)phenyl)butyl)-2-oxo-1,3,4-thiadiazinan-3-yl)ethyl)thiophene-2-carboxylic acid] | 82.0 ± 3.4 mg
2 | Cc1cc(C#Cc2cccc(CC(O)CCN3CCSC(=O)N3CCc3ccc(C(=O)O)s3)c2)cs1 (centres unmarked) [Example 6, 5-(2-(4-(3-Hydroxy-4-(3-((5-methylthiophen-3-yl)ethynyl)phenyl)butyl)-2-oxo-1,3,4-thiadiazinan-3-yl)ethyl)thiophene-2-carboxylic acid] | 81.3 ± 3.6 mg
3 | N#Cc1sccc1C#Cc1cccc(CC(O)CCN2CCSC(=O)N2CCc2ccc(C(=O)O)s2)c1 (centres unmarked) [Example 8, 5-(2-(4-(4-(3-((2-Cyanothiophen-3-yl)ethynyl)phenyl)-3-hydroxybutyl)-2-oxo-1,3,4-thiadiazinan-3-yl)ethyl)thiophene-2-carboxylic acid] | 98.7 ± 4.1 mg
4 | N#Cc1sccc1C#Cc1cccc(C[C@H](O)CCN2CCSC(=O)N2CCc2ccc(C(=O)O)s2)c1 [Example 24, (S)-5-(2-(4-(4-(3-((2-Cyanothiophen-3-yl)ethynyl)phenyl)-3-hydroxybutyl)-2-oxo-1,3,4-thiadiazinan-3-yl)ethyl)thiophene-2-carboxylic acid] | 80.7 ± 4.0 mg

Same assay, conditions: female SD rats, contralateral femur, 100 μg test compound given at left femur, one week after administration

Row | SMILES | Bone mineral content of femur 1/3 center region (mg) Right femur (no administration of compound)
5 | O=C(O)c1ccc(CCN2C(=O)SCCN2CCC(O)Cc2cccc(C#Cc3nccs3)c2)s1 (centres unmarked) [Example 13, 5-(2-(4-(3-Hydroxy-4-(3-(thiazol-2-ylethynyl)phenyl)butyl)-2-oxo-1,3,4-thiadiazinan-3-yl)ethyl)thiophene-2-carboxylic acid] | 65.5 ± 2.7 mg
6 | Cc1cc(C#Cc2cccc(CC(O)CCN3CCSC(=O)N3CCc3ccc(C(=O)O)s3)c2)cs1 (centres unmarked) [Example 6, 5-(2-(4-(3-Hydroxy-4-(3-((5-methylthiophen-3-yl)ethynyl)phenyl)butyl)-2-oxo-1,3,4-thiadiazinan-3-yl)ethyl)thiophene-2-carboxylic acid] | 64.7 ± 2.4 mg

Target: human EP4 receptor (Homo sapiens, UniProt P35408)
Sequence (P35408 whole entry): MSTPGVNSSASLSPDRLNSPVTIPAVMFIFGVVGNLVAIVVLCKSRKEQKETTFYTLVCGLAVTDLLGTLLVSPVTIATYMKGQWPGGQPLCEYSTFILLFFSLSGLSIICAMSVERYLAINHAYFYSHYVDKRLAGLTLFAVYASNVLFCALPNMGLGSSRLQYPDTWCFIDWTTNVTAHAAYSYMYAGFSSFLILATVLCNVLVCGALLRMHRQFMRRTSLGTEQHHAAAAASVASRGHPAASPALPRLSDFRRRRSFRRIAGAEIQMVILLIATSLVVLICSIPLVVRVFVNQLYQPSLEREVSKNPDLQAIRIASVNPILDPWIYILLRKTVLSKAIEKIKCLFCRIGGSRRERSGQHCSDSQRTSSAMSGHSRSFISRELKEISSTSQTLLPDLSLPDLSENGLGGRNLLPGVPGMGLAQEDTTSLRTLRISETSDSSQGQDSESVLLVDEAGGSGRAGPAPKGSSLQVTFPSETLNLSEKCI
Test: Measurement of EP4 agonist activity (cAMP production)
Type: cell-based
Design: expressed in transfected cells; host or cells: HEK293
Settings: cAMP production in HEK293 cells stably expressing human EP4 receptor; average values where measured two or more times
Method: In order to investigate EP4 receptor agonist activity of the compounds of the present invention, production of cAMP was measured in HEK293 cells that were made to stably express the human EP4 receptor.
By using Refseq Database, prostaglandin E receptor was searched for. As a result, gene information of human EP4 (NM_000958) receptor was obtained. On the basis of this sequence information, the human EP4 receptor gene was cloned by PCR in a conventional manner using human cDNA as the template, and HEK293 cells that were made to stably express the human EP4 receptor were established. When cryopreserved cells of this strain were thawed and used, cells subcultured three times or more within a certain period of time (about 1 to 2 weeks) by using Dulbecco's Modified Eagle's Medium (Dulbecco's Modified Eagle's Medium may be henceforth abbreviated as DMEM) containing 10% FBS, 50 units each of penicillin and streptomycin were used. The subcultured cells were inoculated in wells of a poly-D-lysine-coated 96-well plate at a density of 2×10^4 to 2.5×10^4 cells/well, and cultured for one day. The medium in the wells was removed by suction, then DMEM (80 μL) was added to each well, and incubation was performed at 37° C. for 15 minutes. […] The reaction was allowed at 37° C. for 30 minutes, then the medium was removed by suction, Assay/Lysis Buffer (100 μL) contained in cAMP Screen Kit (produced by Applied Biosystems) was added to terminate the reaction. Then, the reaction mixture was incubated at 37° C. for 30 minutes to prepare a sample for quantification of cAMP, and the amount of cAMP in the sample was quantified according to the method indicated in cAMP Screen Kit. By non-linear regression of the compound concentration and the amount of cAMP, the concentration of the compound required for increasing cAMP to 50% of the maximum increase (EC50 value) was calculated by using the Kaleida Graph.

Row | SMILES | EC50
7 | O=C(O)c1ccc(CCN2C(=O)SCCN2CCC(O)Cc2cccc(C#Cc3nccs3)c2)s1 (centres unmarked) [Example 13, 5-(2-(4-(3-Hydroxy-4-(3-(thiazol-2-ylethynyl)phenyl)butyl)-2-oxo-1,3,4-thiadiazinan-3-yl)ethyl)thiophene-2-carboxylic acid] | 340 pM
8 | Cc1cc(C#Cc2cccc(CC(O)CCN3CCSC(=O)N3CCc3ccc(C(=O)O)s3)c2)cs1 (centres unmarked) [Example 6, 5-(2-(4-(3-Hydroxy-4-(3-((5-methylthiophen-3-yl)ethynyl)phenyl)butyl)-2-oxo-1,3,4-thiadiazinan-3-yl)ethyl)thiophene-2-carboxylic acid] | 560 pM
9 | O=C(O)c1ccc(CCN2C(=O)SCCN2CCC(O)Cc2cccc(C#Cc3cscc3-c3ccccc3)c2)s1 (centres unmarked) [Example 21, 5-(2-(4-(3-Hydroxy-4-(3-((4-phenylthiophen-3-yl)ethynyl)phenyl)butyl)-2-oxo-1,3,4-thiadiazinan-3-yl)ethyl)thiophene-2-carboxylic acid] | 500 pM
10 | O=C(O)c1ccc(CCN2C(=O)SCCN2CCC(O)Cc2cccc(C#Cc3ccccc3)c2)s1 (centres unmarked) [Example 15, 5-(2-(4-(3-Hydroxy-4-(3-(phenylethynyl)phenyl)butyl)-2-oxo-1,3,4-thiadiazinan-3-yl)ethyl)thiophene-2-carboxylic acid] | 630 pM
11 | O=C(O)c1ccc(CCN2C(=O)SCCN2CCC(O)Cc2cccc(Br)c2)cc1 (centres unmarked) [Comparative Example 1, 4-(2-(4-(4-(3-Bromophenyl)-3-hydroxybutyl)-2-oxo-1,3,4-thiadiazinan-3-yl)ethyl)benzoic acid, reference compound] | 2500 pM
12 | COc1ccccc1C#Cc1cccc(CC(O)CCN2CCSC(=O)N2CCc2ccc(C(=O)O)s2)c1 (centres unmarked) [Example 16, 5-(2-(4-(3-Hydroxy-4-(3-((2-methoxyphenyl)ethynyl)phenyl)butyl)-2-oxo-1,3,4-thiadiazinan-3-yl)ethyl)thiophene-2-carboxylic acid] | 400 pM
13 | Cc1cscc1C#Cc1cccc(CC(O)CCN2CCSC(=O)N2CCc2ccc(C(=O)O)s2)c1 (centres unmarked) [Example 4, 5-(2-(4-(3-Hydroxy-4-(3-((4-methylthiophen-3-yl)ethynyl)phenyl)butyl)-2-oxo-1,3,4-thiadiazinan-3-yl)ethyl)thiophene-2-carboxylic acid] | 340 pM
14 | N#Cc1cc(C#Cc2cccc(CC(O)CCN3CCSC(=O)N3CCc3ccc(C(=O)O)s3)c2)cs1 (centres unmarked) [Example 12, 5-(2-(4-(4-(3-((5-Cyanothiophen-3-yl)ethynyl)phenyl)-3-hydroxybutyl)-2-oxo-1,3,4-thiadiazinan-3-yl)ethyl)thiophene-2-carboxylic acid] | 600 pM

The next lines start with the values.

Row | EC50 | SMILES
15 | 300 pM | O=C(O)c1ccc(CCN2C(=O)SCCN2CCC(O)Cc2cccc(C#Cc3ccsc3Cl)c2)s1 (centres unmarked) [Example 5, 5-(2-(4-(4-(3-((2-Chlorothiophen-3-yl)ethynyl)phenyl)-3-hydroxybutyl)-2-oxo-1,3,4-thiadiazinan-3-yl)ethyl)thiophene-2-carboxylic acid]
16 | 300 pM | N#Cc1ccsc1C#Cc1cccc(CC(O)CCN2CCSC(=O)N2CCc2ccc(C(=O)O)s2)c1 (centres unmarked) [Example 14, 5-(2-(4-(4-(3-((3-Cyanothiophen-2-yl)ethynyl)phenyl)-3-hydroxybutyl)-2-oxo-1,3,4-thiadiazinan-3-yl)ethyl)thiophene-2-carboxylic acid]
17 | 160 pM | O=C(O)c1ccc(CCN2C(=O)OCCN2CCC(O)Cc2cccc(C#Cc3ccsc3)c2)s1 (centres unmarked) [Example 29, 5-(2-(4-(3-Hydroxy-4-(3-(thiophen-3-ylethynyl)phenyl)butyl)-2-oxo-1,3,4-oxadiazinan-3-yl)ethyl)thiophene-2-carboxylic acid]
18 | 100 pM | Cc1ccc(CC(O)CCN2CCSC(=O)N2CCc2ccc(C(=O)O)s2)cc1C#Cc1ccsc1 (centres unmarked) [Example 18, 5-(2-(4-(3-Hydroxy-4-(4-methyl-3-(thiophen-3-ylethynyl)phenyl)butyl)-2-oxo-1,3,4-thiadiazinan-3-yl)ethyl)thiophene-2-carboxylic acid]
19 | 90 pM | O=C(O)c1ccc(CCN2C(=O)SCCN2CCC(O)Cc2cccc(/C=C/c3ccsc3)c2)s1 (centres unmarked) [Example 27, (E)-5-(2-(4-(3-Hydroxy-4-(3-(2-(thiophen-3-yl)vinyl)phenyl)butyl)-2-oxo-1,3,4-thiadiazinan-3-yl)ethyl)thiophene-2-carboxylic acid]
20 | 90 pM | N#Cc1cscc1C#Cc1cccc(CC(O)CCN2CCSC(=O)N2CCc2ccc(C(=O)O)s2)c1 (centres unmarked) [Example 7, 5-(2-(4-(4-(3-((4-Cyanothiophen-3-yl)ethynyl)phenyl)-3-hydroxybutyl)-2-oxo-1,3,4-thiadiazinan-3-yl)ethyl)thiophene-2-carboxylic acid]
21 | 90 pM | O=C(O)c1ccc(CCN2C(=O)SCCN2CCC(O)Cc2cccc(C#Cc3ccco3)c2)s1 (centres unmarked) [Example 11, 5-(2-(4-(4-(3-(Furan-2-ylethynyl)phenyl)-3-hydroxybutyl)-2-oxo-1,3,4-thiadiazinan-3-yl)ethyl)thiophene-2-carboxylic acid]
22 | 90 pM | O=C(O)c1ccc(CCN2C(=O)SCCN2CCC(O)Cc2cccc(C#Cc3cscn3)c2)s1 (centres unmarked) [Example 9, 5-(2-(4-(3-Hydroxy-4-(3-(thiazol-4-ylethynyl)phenyl)butyl)-2-oxo-1,3,4-thiadiazinan-3-yl)ethyl)thiophene-2-carboxylic acid]
23 | 87 pM | O=C(O)c1cc(Cl)c(CCN2C(=O)SCCN2CCC(O)Cc2cccc(C#Cc3ccccn3)c2)s1 (centres unmarked) [Example 28, 4-Chloro-5-(2-(4-(3-hydroxy-4-(3-(pyridin-2-ylethynyl)phenyl)butyl)-2-oxo-1,3,4-thiadiazinan-3-yl)ethyl)thiophene-2-carboxylic acid]
24 | 45 pM | O=C(O)c1ccc(CCN2C(=O)SCCN2CCC(O)Cc2cccc(C#Cc3ccsc3)c2)s1 (centres unmarked) [Example 1, 5-(2-(4-(3-Hydroxy-4-(3-(thiophen-3-ylethynyl)phenyl)butyl)-2-oxo-1,3,4-thiadiazinan-3-yl)ethyl)thiophene-2-carboxylic acid]
25 | 35 pM | O=C(O)c1cc(Br)c(CCN2C(=O)SCCN2CCC(O)Cc2cccc(C#Cc3ccsc3)c2)s1 (centres unmarked) [Example 2, 4-Bromo-5-(2-(4-(3-hydroxy-4-(3-(thiophen-3-ylethynyl)phenyl)butyl)-2-oxo-1,3,4-thiadiazinan-3-yl)ethyl)thiophene-2-carboxylic acid]
26 | 26 pM | O=C(O)c1cc(Cl)c(CCN2C(=O)SCCN2CCC(O)Cc2cccc(C#Cc3ccsc3)c2)s1 (centres unmarked) [Example 17, 4-Chloro-5-(2-(4-(3-hydroxy-4-(3-(thiophen-3-ylethynyl)phenyl)butyl)-2-oxo-1,3,4-thiadiazinan-3-yl)ethyl)thiophene-2-carboxylic acid]
